Measurements from patent US20240124408A1 (Sanofi, priority 2020, published 2024).

How the values were obtained:
Format in all cases: cell-based
human TRPM8 [1] = target: T1, human TRPM8 (Homo sapiens, UniProt Q7Z2W7); assay: In vitro human TRPM8 fluorescence calcium flux assay (recombinant CHO cells, Fluo4-AM, FDSS6000); details: recombinant CHO cells expressing human TRPM8; menthol-related EC50, normalized to 100 μM menthol
T1 construct: expressed in transfected cells; host or cells: CHO (p658 mammalian expression vector)
In short: (§1)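 Agonist EC50 values come from sixteen-point dose responses normalized to the 100 μM menthol maximum, fitted sigmoidally. Calcium rise was followed for 3 min post-addition in recombinant CHO lines (human or pig TRPM8). Cells were dye-loaded with 2 μM Fluo4-AM, 1 h at room temperature, probenecid-containing HBSS.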

pig TRPM8 [2] = target: T2, pig TRPM8 (Sus scrofa, UniProt F1SM15); assay: In vitro pig TRPM8 fluorescence calcium flux assay (recombinant CHO cells, Fluo4-AM, FDSS6000); details: recombinant CHO cells expressing pig TRPM8; menthol-related EC50, normalized to 100 μM menthol
T2 construct: expressed in transfected cells; host or cells: CHO (pcDNA5/FRT/TO vector; hygromycin B and blasticidin selection)
In short: as §1

human TRPM8 [3] = target: T1, human TRPM8; assay: In vitro human TRPM8 automated patch-clamp assay (SyncroPatch 384PE, CHO cells); details: CHO cells expressing human TRPM8, 28° C.
Description: (§2) In Vitro Pig and Human TRPM8 Automated Patch-Clamp Assays
(§3) Automated whole-cell recordings of compound effects were performed on the SyncroPatch 384PE (Nanion Technologies, Munich, Germany) incorporated into a Biomek FX pipetting robot (Beckman Coulter, Jersey City, NJ, USA) using the same engineered CHO cell lines expressing human or pig TRPM8 channels. Data acquisition and analysis were performed with the proprietary software PatchControl 384 and DataControl 384, respectively (Nanion Technologies, Munich, Germany). All recordings were carried out using planar borosilicate glass patch clamp chips in a 384-microtiter plate format with patch hole resistances of 2-4 MO. For recordings, standard intracellular solution was used containing (in mM): 130 KF, 4 NaCl, 1 MgCl2, 0.5 CaCl2, 10 HEPES and 10 EGTA/KOH (pH 7.2) and standard extracellular solution contained in mM: 150 NaCl, 4 KCl, 0.5 CaCl2, 1 MgCl2 and 10 HEPES (pH 7.3).
(§4) Prior to the electrophysiological measurements, cells were harvested using Accutase (GIBCO, Fisher Scientific) and resuspended in warmed extracellular solution. The cell suspension was kept in the dedicated cell reservoir at 28° C. at a 1 million/ml cell density and shaken at 500 rounds per min (rpm). Experiments were performed at 28° C. throughout. Cells were distributed in high resistance 4-holes-per-well Nanion chips where they were caught on the patch holes by application of a −80 mbar pressure. The cell membrane was ruptured to obtain the whole-cell configuration with a pressure pulse of −250 mbar for 2 seconds. Voltage protocols were constructed using PatchControl 384. The cells were held at a holding potential of −60 mV and TRPM8 currents were recorded using a ramp protocol from −80 to +80 mV every 5 seconds before and after compound addition. Resulting currents were recorded at both −80 and +80 mV and current kinetics were exported and analyzed. From each plate, control wells with 200 μM menthol were recorded to validate the assay. One concentration of compound was applied to each of the other wells. For each concentration, compound response was determined by subtracting the baseline current recorded before compound addition from the maximum peak elicited currents obtained after compound addition. Then, each compound response was normalized to control condition without compound and maximum current (Emax) obtained for each compound. Nanion DataControl 384 software plotted current response for each compound concentration and was able to calculate an EC50 value for each active compound.

pig TRPM8 [4] = target: T2, pig TRPM8; assay: In vitro pig TRPM8 automated patch-clamp assay (SyncroPatch 384PE, CHO cells); details: CHO cells expressing pig TRPM8, 28° C.
Description: as §2, §3, §4

T2 sequence (F1SM15 1-1104): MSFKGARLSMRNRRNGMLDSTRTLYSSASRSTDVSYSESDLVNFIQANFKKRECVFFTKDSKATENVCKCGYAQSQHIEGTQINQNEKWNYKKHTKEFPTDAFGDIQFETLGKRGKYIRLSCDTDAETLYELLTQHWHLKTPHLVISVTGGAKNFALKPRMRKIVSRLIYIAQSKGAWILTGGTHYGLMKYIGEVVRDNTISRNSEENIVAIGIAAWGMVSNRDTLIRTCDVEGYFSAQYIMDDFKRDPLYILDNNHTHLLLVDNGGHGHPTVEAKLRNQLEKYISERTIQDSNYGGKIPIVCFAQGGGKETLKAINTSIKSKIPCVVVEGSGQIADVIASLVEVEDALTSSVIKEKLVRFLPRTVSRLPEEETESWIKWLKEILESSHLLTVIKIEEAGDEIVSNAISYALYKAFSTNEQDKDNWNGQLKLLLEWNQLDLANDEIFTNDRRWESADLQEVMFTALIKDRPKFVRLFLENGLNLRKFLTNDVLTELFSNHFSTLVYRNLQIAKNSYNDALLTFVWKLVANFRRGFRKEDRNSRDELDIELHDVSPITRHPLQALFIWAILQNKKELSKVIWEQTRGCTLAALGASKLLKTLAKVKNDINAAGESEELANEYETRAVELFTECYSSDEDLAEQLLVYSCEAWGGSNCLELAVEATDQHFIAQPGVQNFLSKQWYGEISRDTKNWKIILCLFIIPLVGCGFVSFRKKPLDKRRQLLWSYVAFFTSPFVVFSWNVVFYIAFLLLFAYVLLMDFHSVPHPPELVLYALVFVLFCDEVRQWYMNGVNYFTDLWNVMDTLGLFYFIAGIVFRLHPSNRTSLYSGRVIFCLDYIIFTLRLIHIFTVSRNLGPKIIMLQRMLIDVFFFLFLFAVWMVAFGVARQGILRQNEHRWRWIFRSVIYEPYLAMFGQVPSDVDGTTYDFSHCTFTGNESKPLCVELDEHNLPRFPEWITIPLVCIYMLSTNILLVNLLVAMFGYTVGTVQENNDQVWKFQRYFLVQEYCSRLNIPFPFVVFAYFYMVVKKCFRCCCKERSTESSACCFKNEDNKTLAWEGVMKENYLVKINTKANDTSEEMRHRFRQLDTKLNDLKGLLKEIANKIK
T1 sequence (Q7Z2W7 whole entry): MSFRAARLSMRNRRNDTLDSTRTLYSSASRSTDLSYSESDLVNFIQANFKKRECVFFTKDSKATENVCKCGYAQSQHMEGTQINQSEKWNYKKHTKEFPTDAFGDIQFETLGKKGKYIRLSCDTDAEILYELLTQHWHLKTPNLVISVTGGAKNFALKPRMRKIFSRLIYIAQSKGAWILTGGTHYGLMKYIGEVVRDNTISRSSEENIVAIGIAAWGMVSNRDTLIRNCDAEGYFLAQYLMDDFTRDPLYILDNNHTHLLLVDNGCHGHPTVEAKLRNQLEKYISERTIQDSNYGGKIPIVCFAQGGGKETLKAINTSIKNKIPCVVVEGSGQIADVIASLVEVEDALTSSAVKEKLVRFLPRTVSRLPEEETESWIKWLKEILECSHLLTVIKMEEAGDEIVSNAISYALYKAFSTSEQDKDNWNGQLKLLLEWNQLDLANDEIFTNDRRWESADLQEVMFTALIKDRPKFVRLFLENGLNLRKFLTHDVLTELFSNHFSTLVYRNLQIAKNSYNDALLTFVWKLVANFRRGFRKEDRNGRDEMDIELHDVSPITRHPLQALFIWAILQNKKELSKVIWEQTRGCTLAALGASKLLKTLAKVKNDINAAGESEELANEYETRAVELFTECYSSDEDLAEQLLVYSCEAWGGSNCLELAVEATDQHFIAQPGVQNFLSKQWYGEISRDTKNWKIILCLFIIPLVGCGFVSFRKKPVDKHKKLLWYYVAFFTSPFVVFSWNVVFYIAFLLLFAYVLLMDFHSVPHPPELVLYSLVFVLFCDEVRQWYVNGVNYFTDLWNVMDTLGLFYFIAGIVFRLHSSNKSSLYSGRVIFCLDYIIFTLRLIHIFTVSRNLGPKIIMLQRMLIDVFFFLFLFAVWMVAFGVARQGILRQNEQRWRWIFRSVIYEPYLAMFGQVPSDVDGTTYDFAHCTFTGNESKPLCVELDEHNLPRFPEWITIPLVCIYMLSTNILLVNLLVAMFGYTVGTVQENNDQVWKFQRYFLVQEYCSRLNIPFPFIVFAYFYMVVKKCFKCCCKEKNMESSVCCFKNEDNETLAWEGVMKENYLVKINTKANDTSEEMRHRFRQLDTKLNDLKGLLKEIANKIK

SMILES	EC50 (human TRPM8 [1]) [nM]	EC50 (pig TRPM8 [2]) [nM]	EC50 (human TRPM8 [3]) [nM]	EC50 (pig TRPM8 [4]) [nM]
CC(C)[C@@H]1CC[C@@H](C)C[C@@]1(O)C(=O)NCCc1cccc2c1OCC2 [Example 159, (1S,2S,5R)-N-[2-(2,3-dihydrobenzofuran-7-yl)ethyl]-1-hydroxy-2-isopropyl-5-methyl-cyclohexanecarboxamide]	9.2	4.9	1000	1030
COC(=O)[C@@H](N)COc1cccc(CCNC(=O)[C@]2(O)C[C@H](C)CC[C@H]2C(C)C)c1 [Example 27, methyl O-(3-(2-((1S,2S,5R)-1-hydroxy-2-isopropyl-5-methylcyclohexane-1-carboxamido)ethyl)phenyl)-L-serinate]	3.1	10.3	2400	4000
CC(C)[C@@H]1CC[C@@H](C)C[C@@]1(O)C(=O)NCC(=O)c1ccc(O)cc1 [Example 143, (1S,2S,5R)-1-hydroxy-N-[2-(4-hydroxyphenyl)-2-oxo-ethyl]-2-isopropyl-5-methyl-cyclohexanecarboxamide]	5.6	7.3	1100	985
COC(=O)COc1ccccc1CCNC(=O)[C@]1(O)C[C@H](C)CC[C@H]1C(C)C [Example 61, methyl 2-(2-(2-((1S,2S,5R)-1-hydroxy-2-isopropyl-5-methylcyclohexane-1-carboxamido)ethyl)phenoxy)acetate]	11.1	7.4	2910	5050
CC(C)[C@@H]1CC[C@@H](C)C[C@@]1(O)C(=O)NCCc1cccc(OCC(O)CO)c1 (stereo partly drawn) [Example 10, (1S,2S,5R)—N-(3-(2,3-dihydroxypropoxy)phenethyl)-1-hydroxy-2-isopropyl-5-methylcyclohexane-1-carboxamide]	21.4	9.7	4130	4800
CC(C)[C@@H]1CC[C@@H](C)C[C@@]1(O)C(=O)NCCc1ccccc1CCN [Example 53, (1S,2S,5R)—N-(2-(2-aminoethyl)phenethyl)-1-hydroxy-2-isopropyl-5-methylcyclohexane-1-carboxamide]	2.4	2.6	200	326
CC(C)[C@@H]1CC[C@@H](C)C[C@@]1(O)C(=O)NCC1(O)CCOc2ccccc21 (stereo partly drawn) [Example 96, (1S,2S,5R)-1-hydroxy-N-((4-hydroxychroman-4-yl)methyl)-2-isopropyl-5-methylcyclohexane-1-carboxamide]	10.3	25.2	630	1100
COC(=O)Cc1cccc(CCNC(=O)[C@]2(O)C[C@H](C)CC[C@H]2C(C)C)c1 [Example 74, methyl 2-(3-(2-((1S,2S,5R)-1-hydroxy-2-isopropyl-5-methylcyclohexane-1-carboxamido)ethyl)phenyl)acetate]	41	9	2900	5190
CC(C)[C@@H]1CC[C@@H](C)C[C@@]1(O)C(=O)NCC(=O)c1cccc(O)c1 [Example 39, (1S,2S,5R)-1-hydroxy-N-(2-(3-hydroxyphenyl)-2-oxoethyl)-2-isopropyl-5-methylcyclohexane-1-carboxamide]	1.2	0.9	460	430
Cc1cccc(C(F)(F)CNC(=O)[C@]2(O)C[C@H](C)CC[C@H]2C(C)C)c1 [Example 187, (1S,2S,5R)—N-[2,2-difluoro-2-(3-methylphenyl)ethyl]-1-hydroxy-2-isopropyl-5-methyl-cyclohexanecarboxamide]	33.8	6.2	510	550

Next, values leading:

EC50 (human TRPM8 [1]) [nM]	EC50 (pig TRPM8 [2]) [nM]	EC50 (human TRPM8 [3]) [nM]	EC50 (pig TRPM8 [4]) [nM]	SMILES
3	1.2	1700	1010	CC(C)[C@@H]1CC[C@@H](C)C[C@@]1(O)C(=O)NC[C@@H](F)c1ccccc1 [Example 180, (1S,2S,5R)—N-((2S)-2-fluoro-2-phenylethyl)-1-hydroxy-2-isopropyl-5-methylcyclohexane-1-carboxamide]
3	2	1390	790	[2H]C(O)(CNC(=O)[C@]1(O)C[C@H](C)CC[C@H]1C(C)C)c1ccccc1 (stereo partly drawn) [Example 72, (1S,2S,5R)-1-hydroxy-N-(2-hydroxy-2-phenylethyl-2-d)-2-isopropyl-5-methylcyclohexane-1-carboxamide]
7.1	19.9	1700	1520	COC(=O)[C@@H](N)Cc1ccccc1CCNC(=O)[C@]1(O)C[C@H](C)CC[C@H]1C(C)C [Example 19, methyl (S)-2-amino-3-(2-(2-((1S,2S,5R)-1-hydroxy-2-isopropyl-5-methylcyclohexane-1-carboxamido)ethyl)phenyl)propanoate]
2.7	2.8	120	20	CC(C)[C@@H]1CC[C@@H](C)C[C@@]1(O)C(=O)NCC(NC(=O)CN)c1ccccc1 (single isomer, unassigned) [Example 183]
1.2	0.7	450	596	CC(C)[C@@H]1CC[C@@H](C)C[C@@]1(O)C(=O)NCC(=O)c1ccccc1 [Example 2, (1S,2S,5R)-1-hydroxy-2-isopropyl-5-methyl-N-(2-oxo-2-phenylethyl)cyclohexane-1-carboxamide]
31.1	13.9	3600	5600	CC(C)[C@@H]1CC[C@@H](C)C[C@@]1(O)C(=O)NCCOc1ccccc1 [Example 120, (1S,2S,5R)-1-hydroxy-2-isopropyl-5-methyl-N-(2-phenoxyethyl)cyclohexanecarboxamide]
51	75	3700	6060	CC(C)[C@@H]1CC[C@@H](C)C[C@@]1(O)C(=O)NCC(CCO)c1ccccc1 (stereo partly drawn) [Example 66, (1S,2S,5R)-1-hydroxy-N-(4-hydroxy-2-phenylbutyl)-2-isopropyl-5-methylcyclohexane-1-carboxamide]
41.8	14.4	3000	2000	CC(C)[C@@H]1CC[C@@H](C)C[C@@]1(O)C(=O)NCC(CO)c1ccccc1 (single isomer, unassigned) [Example 90]
17	11	3100	2360	CC(C)[C@@H]1CC[C@@H](C)C[C@@]1(O)C(=O)NCC(O)c1cccc(CO)c1 (stereo partly drawn) [Example 37, (1S,2S,5R)-1-hydroxy-N-(2-hydroxy-2-(3-(hydroxymethyl)phenyl)ethyl)-2-isopropyl-5-methylcyclohexane-1-carboxamide]
1.1	0.6	590	598	CC(C)[C@@H]1CC[C@@H](C)C[C@@]1(O)C(=O)NC[C@H](F)c1ccccc1 [Example 179, (1S,2S,5R)—N-((2R)-2-fluoro-2-phenylethyl)-1-hydroxy-2-isopropyl-5-methylcyclohexane-1-carboxamide]
36.8	35.5	1120	9910	CC(=O)O[C@H](CNC(=O)[C@]1(O)C[C@H](C)CC[C@H]1C(C)C)c1ccccc1 [Example 3, (S)-2-((1S,2S,5R)-1-hydroxy-2-isopropyl-5-methylcyclohexane-1-carboxamido)-1-phenylethyl acetate]
3.3	2.5	1300	504	CC(C)[C@@H]1CC[C@@H](C)C[C@@]1(O)C(=O)NCCc1ccccc1O [Example 116, (1S,2S,5R)-1-hydroxy-N-[2-(2-hydroxyphenyl)ethyl]-2-isopropyl-5-methyl-cyclohexanecarboxamide]
